Here are results for five sequences from patent US20090170759A1, “NEUROPROTECTIVE PEPTIDES” (priority 2007, published 2009).

One test concerns rat hippocampal cultures. Put plainly: Neurite outgrowth assay (MAP2-FITC immunofluorescence), hippocampal cultures. In kind it is cell-based. Particulars: for neurite outgrowth in rat hippocampal cultures (in words): figure legends. From the text:
(§1) Dissociated hippocampal and cortical cell cultures were established from embryonic day 18 rat fetuses as previously described (Mattson et al., 1994). Briefly, fetuses were removed via cesarean section from pregnant moms (Sprague-Dawley) anesthetized with halothane according to the AVMA Panel on Euthanasia. Pups were decapitated and the brains were removed and placed in HEPES-buffered Hank's Balanced Salt solution (HBSS; Gibco). The hippocampi and cortices were dissected out and pooled according to tissue-type. Tissue was trypsinized for 15 min (1 mg/ml trypsin-HBSS; Worthington), rinsed with fresh HBSS, incubated in trypsin inhibitor (1 mg/ml; Sigma) for 5 min, rinsed again with fresh HBSS and then triturated in 1 ml fresh HBSS with a fire-polished glass pipette. Dissociated cells were seeded at 30,000 cells/well onto poly-D-lysine coated 96-well plates (Collaborative BioScience). Each well contained 100 μl of Eagle's Minimal Essential Media (MEM; Gibco) supplemented with 26 mM NaHCO3 (Sigma), 56 mM glucose (Sigma), 15 mM KCl (Sigma), 1 mM sodium pyruvate (Sigma), 1.1 mM L-glutamine (Sigma), 10% (v/v) heat-inactivated fetal bovine serum (Hyclone), and 0.001% gentamicin sulfate (Sigma) (pH 7.4). Cells were allowed to attach for 24 h in a humidified 37° C. 5% CO2 incubator before experimental treatment. The culture media was aspirated and exchanged with fresh media every three days.
(§2) Twenty-four hours after plating, cultures were treated with vehicle (PBS+0.1% BSA), 100 ng of various growth factors (brain derived neurotrophic factor (BDNF; Promega), glial-derived neurotrophic factor (GDNF; Promega), nerve growth factor (NGF; Boehringer Mannheim), basic fibroblast growth factor (bFGF; Boehringer Mannheim), insulin-like growth factor-1 (IGF-1; Boehringer Mannheim), neurotrophin-3 (NT3; Calbiochem), neurotrophin-4 (NT4; Calbiochem), ciliary neurotrophic factor (CNTF; Calbiochem), epidermal growth factor (EGF; Calbiochem), vascular endothelial growth factor (VEGF; Calbiochem)), or rhEPO (prepared same as above; 10 fM-10 nM)). Each treatment condition was run in quadruplicate or octuplicate. On the third day in culture, the media was aspirated off and replaced with fresh media and test compound. At one week in culture, the cells were fixed with 10% phosphate-buffered formalin for 15 min, then rinsed with DPBS (Sigma) and placed in blocking serum for 30 min (horse serum; 1:50 dilution in DPBS; Vector Labs). Cultures were rinsed again with DPBS and then incubated in primary antibody for 2 hr (microtubule-associated protein-2 (MAP-2) is a selective marker for dendritic processes; anti-mouse monoclonal (Chemicon); 1:1000 dilution of MAP-2 in antibody diluent (Zymed)). Negative control wells were incubated in antibody diluent alone. Background signal was determined by blank wells (cell-free) incubated with or without antibody. Cultures were rinsed again with DPBS and then placed in fluorescein for 1 hr (FITC; anti-mouse IgG; rat adsorbed; 1:50 dilution in DPBS; Vector Labs). Cultures were rinsed a final time with DPBS and then the plates were read on a Cytofluor 4000 fluorescence plate reader. Neurite outgrowth was expressed as percent change from control (vehicle; mean fluorescence±SD).
(§3) Dissociated hippocampal and cortical cell cultures were established from embryonic day 18 rat fetuses as previously described (Mattson et al., 1994). Briefly, fetuses were removed via cesarean section from pregnant moms (Sprague-Dawley) anesthetized with halothane according to the AVMA Panel on Euthanasia. Pups were decapitated and the brains were removed and placed in HEPES-buffered Hank's Balanced Salt solution (HBSS; Gibco). The hippocampi and cortices were dissected out and pooled according to tissue-type. […]

In test [1] the test system is rat cerebral cortical cultures. Put plainly: Neurite outgrowth assay (MAP2-FITC immunofluorescence), cortical cultures. To be noted: figure legends. In kind it is cell-based.
Excerpt: as §1, §2, §3

For GGTASCHFGPLTWVCKPQGG [EMP-6], the “neurite outgrowth in rat hippocampal cultures (in words)” value in the test on rat hippocampal cultures is given as “promotes neurite outgrowth”. For the same sequence, the “neurite outgrowth in rat cerebral cortical cultures (in words)” value in test [1] is listed as “promotes neurite outgrowth”.

For GGTYSCFGPLTWVCKPQGG [EMP-27], the “neurite outgrowth in rat hippocampal cultures (in words)” value in the test on rat hippocampal cultures is “promotes neurite outgrowth”. Besides, the “neurite outgrowth in rat cerebral cortical cultures (in words)” value in test [1] is given as “promotes neurite outgrowth”.

GGTYSCHFAPLTWVCKPQGG [EMP-9]: in the test on rat hippocampal cultures, the “neurite outgrowth in rat hippocampal cultures (in words)” value is listed as “promotes neurite outgrowth”. Also, in test [1], the “neurite outgrowth in rat cerebral cortical cultures (in words)” value is recorded as “promotes neurite outgrowth”.

For the sequence GGTYSCHFGPLTWVCKPQGG [EMP-1], the “neurite outgrowth in rat hippocampal cultures (in words)” value with rat hippocampal cultures is “promotes neurite outgrowth”. In addition, the “neurite outgrowth in rat cerebral cortical cultures (in words)” value in test [1] was “promotes neurite outgrowth”.

As for YCHFGPLTWVC [EMP-23], in the test on rat hippocampal cultures (Example 4, 10 fM-10 nM tested), the “neurite outgrowth increase over vehicle at peak activity, hippocampal cultures” value is on record as 43-46%. In addition, in the test on rat hippocampal cultures, the “neurite outgrowth in rat hippocampal cultures (in words)” value is “promotes neurite outgrowth”. For the same sequence, in test [1], the “neurite outgrowth in rat cerebral cortical cultures (in words)” value was “promotes neurite outgrowth”.
